Data as given in patent publication US20240269170A1, “Treatment of Inflammatory Conditions or Diseases” (Queen Mary University of London, priority 2021, published 2024).

Tested on: G6PI peptide induced arthritis in DBA/1 mice
Experiment: G6PI peptide induced arthritis, transfer of monocytes from naive mice pre-incubated with MCTR3
Assay type: in vivo, mouse
Conditions: monocytes incubated with 10 μM RG108 for 15 min before 1 nM MCTR3
Description: FIG. 3: MCTR3 reprograms monocyte responses to reduce inflammation and repair inflamed joints. (A-B) Antigen induced arthritis was initiated by administering G6PI peptide (10 μg/mouse) in CFA via intradermal injection to DBA/1 mice. After 25 days mice were treated with 0.5×10^6 monocytes from naive mice that had been pre-incubated with vehicle (PBS+0.1% EtOH) or 1 nM MCTR3 for 90 min at 37° C. via i.v. injection. Disease course was monitored daily by assessing A) clinical scores and B) oedema. Results are mean±SEM and expressed as percent change from day of treatment n=5 per group from two separate experiments. Results are mean±SEM. Statistical differences were calculated using a Two-way ANOVA.
FIG. 11: DNA methyltransferase inhibition prevents MCTR3 reprogramming of protective monocyte responses. […] Disease course was assessed by evaluating A) clinical scores and B) oedema relative to the day of treatment. Results are mean±SEM and expressed as percentage change from day of treatment. n=5 per group and statistics were calculated using a Two-way ANOVA. […]

For O=C(O)C(Cc1c[nH]c2ccccc12)N1C(=O)c2ccccc2C1=O (stereo not shown) [RG108], the “protective actions of MCTR3 (ability of reprogrammed monocytes to regulate joint inflammation)” value was “abolished”.
